Our source for the Kd values is PMC2852583 (Biochemistry, 2010).

In general, Kd refers to the equilibrium constant for the complex coming apart.

In this assay the target is T1, pKSI (Δ5-3-ketosteroid isomerase from Pseudomonas putida) (Pseudomonas putida, UniProt P07445, D40N).
T1 sequence (P07445 1-131 D40N): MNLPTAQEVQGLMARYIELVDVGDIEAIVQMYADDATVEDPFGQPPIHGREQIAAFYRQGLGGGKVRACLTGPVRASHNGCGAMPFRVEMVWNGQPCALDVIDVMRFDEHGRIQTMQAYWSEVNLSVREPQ
In words: fluorescence emission, linear combination of bound and free spectra. It is filed as binding.
In the case of `N#Cc1ccc2cc(O)ccc2c1` [6-cyano-2-naphthol], the Kd was determined as 2 ± 1 µM.
Under `Oc1ccc2cc(O)ccc2c1` [2,6-dihydroxynaphthalene] stands 20 ± 6 µM; under `Oc1ccc2cc(Br)ccc2c1` [6-bromo-2-naphthol], 4 ± 1 µM.
`COc1ccc2cc(O)ccc2c1` [6-methoxy-2-naphthol]: the Kd was found to be 10 ± 5 µM.
